Measured values as given in US8198317B2, “Methylenedioxy phenolic compounds and their use to treat disease” (The Ohio State University Research Foundation, priority 2008, dated 2012).

Experiments:
VCAM-1 [1] = test: ELISA of VCAM-1 release from TNF-α stimulated HUVEC; type: cell-based, human; conditions: HUVEC pretreated 24 hours, then 2 ng/mL TNF-α for 6 hours
Protocol: Cell Culture: All experiments were performed with cultured Human Umbilical Vein Endothelial Cells (HUVECs—Gibco, Invitrogen) and grown to confluence at 37° C. in a 5% CO2 humidified incubator, on tissue culture flasks previously coated with 1% gelatin in supplemented culture medium (M199 with 10% heat inactivated fetal calf serum, 100 U/ml penicillin, 100 μg/ml streptomycin, 2 mM glutamine, 10 mM HEPES, pH 7.4, heparin 12 I.U./ml, 1% retinal derived growth factor, Sigma). Following trypsin treatment, the cells were detached from the flasks and final mono-layers were prepared by seeding HUVECs on gelatin-precoated culture plates and then incubated for 24-48 h to ensure confluence. Cells up to the fourth passage were used for all experiments. Recombinant human TNF-α was purchased from R&D Systems (Minneapolis, Minn.).
Enzyme-Linked Immunosorbent Assay (ELISA): To measure the expression of cell surface adhesion molecules, ELISA technique was utilized (R and D Systems, Minneapolis, Minn.). […]
Enzyme-Linked Immunosorbent Assay (ELISA) and results: To measure the expression of cell surface adhesion molecules, ELISA technique was utilized. […] The expression of VCAM-1 and ICAM-1 were evaluated after TNF-α stimulation for 6 hours.

VCAM-1 [2] = test: VCAM-1 western blot in TNFα treated HUVECs; type: cell-based, human
Protocol: FIG. 25 is a graph showing VCAM-1 protein expression level as a cellular correlate of inflammation. INV-75 inhibits TNFα induced VCAM-1 expression in HUVECs. HUVECs were pretreated with vehicle, INV75, or WY-14643 for 2 hours, and then treated with TNFα for 4 hours. VCAM-1 expression was analyzed by Western blot. A representative and summary of three independent experiments are presented. *, p<0.05 vs control; #, p<0.05 vs TNFα.
In subsequent experiments we also tested the effects of INV-75 on VCAM-1 expression by western blot.
We have also examined the effects of INV-75 in cell culture to understand its effects on regulation of the adhesion molecule VCAM-1. We had previously shown that iNV-75 reduced NF-kB activation and expression of VCAM-1 and ICAM-1 in HUVEC cells (see FIG. 3 and FIG. 4). […] HUVECs were pretreated with vehicle, INV-75, or WY-14643 for 2 hours, and then treated with TNFα for 4 hours. VCAM-1 expression was analyzed at the end of this duration. A representative and summary of three independent experiments are presented. *, p<0.05 vs control; #, p<0.05 vs TNFα (FIG. 25).

p65 subunit of NF-κB = test: NF-κB translocation assay in HUVECs; type: cell-based, human; conditions: HUVEC
Description: NF-κB Translocation Assays: Cytokines such as TNF-α and interleukin-1 (IL-1) activate a pro-inflammatory response in endothelial cells. An early event in this response is nuclear translocation of the NF-κB transcription factor. This translocation causes the transcription of pro-inflammatory genes such as adhesion molecules VCAM-1, ICAM-1 and E-Selectin to be induced.
NF-κB is a heterodimer, composed of p65 and p50 subunits. Nuclear translocation is monitored by immunolocalization of the p65 subunit of NF-κB in fixed cells and is quantified by measuring the ratio of nuclear to cytoplasmic NF-κB signal. The nuclear translocation of NF-κB in stimulated cells such as primary human umbilical vein endothelial cells (HUVECs) therefore provides a readout that can be used to study the effects of bioactive compounds on the responsiveness of endothelium to pro-inflammatory stimuli. HUVECs were pre-treated with INV-75 at various concentrations (10 nM to 1 μM) or control (without [INV-75) for 24 hours. The media was then changed to one containing 10 ng/ml TNFα, or 1 μg/ml bovine serum albumin (vehicle) for 6 hours. p65 distribution was calculated as intensity in the cytoplasm and nucleus in regions of interest. At least 5 cells per high power field were used and at least 5 high power fields per concentration of the drug were used. The intensities were then expressed as the ratio of nuclear to cytoplasmic staining at least 5 cells per high power field. The data was then expressed as a ratio of the nuclear to cytoplasmic ratio without TNF-α.
In alternate experiments to assess NF-κB Activation extraction reagents were used to extract nuclear and cytoplasmic fraction from HUVEC cells previously treated with INV-75 at various concentrations for 6-24 hours before being stimulated with 2 ng/mL TNF-α for 6 hours. The expression of VCAM-1 and ICAM-1 were evaluated after TNF-α stimulation for 6 hours stimulation by western blot analysis. The p65 level in nuclear and cytoplasmic extracts were then analyzed by western blotting as described above.

[3] = tested on: New Zealand White rabbits; test: Plasma lipid profile in NZW rabbits; type: in vivo, rabbit; conditions: end of treatment
Protocol: Animal Model: 15 male New Zealand White rabbits (Charles River, Mass.) were fed with high fat diet (HFD) (Harlan Teklad rabbit diet with 0.5% cholesterol, TD 87251). After 4 weeks of high fat diet, rabbits were randomized into three different treatment groups, normal control (n=5), lipoic acid (100 mg/kg/day) (n=5), INV 70-65 (100 mg/kg/day) (n=5). These drugs were administered to the animals via their chow by mixing the drugs with the high fat diet. A fixed amount of chow and drugs admixed in the chow were fed to all animals every day after carefully calculating food intake in each rabbit. Drugs were dissolved in 100% ethanol and sprayed onto the diet and kept under vacuum to let ethanol evaporate overnight. Two (2) weeks after drug or control admixed HFD, all rabbits underwent aortic balloon denudation surgeries followed by 12 weeks of continued administration of drug or controls admixed with HFD. FIG. 29 provides an outline of the experimental design.
A lipid profile (Cholesterol, Triglycerides, direct HDL, LDL and VLDL) was performed after a total of 12 weeks of treatment with the drugs. One (1) ml of blood from the ear lobe vein was placed into tubes containing K EDTA at the beginning of the high cholesterol diet and again at the time of sacrifice. All values were expressed as mean±SD. The bar graph of each group both at the baseline and the end point measurement is presented. The statistical analysis was done with one way ANOVA.

Row | SMILES | release of VCAM-1 (VCAM-1 [1]) | TNFα induced VCAM-1 expression (VCAM-1 [2]; HUVECs pretreated 2 hours, then TNFα 4 hours) | VCAM-1 protein levels by western blot (VCAM-1 [2]; pre-treatment versus control (vehicle)) | nuclear p65 expression (nuclear to cytoplasmic ratio) (p65 subunit of NF-κB; 24 hours pre-treatment, then TNF-α, n=3) | concentration from which translocation of p65 to the nucleus is inhibited (p65 subunit of NF-κB; TNF-α stimulated) [nM] | LDL level compared to normal control [3] | TC level compared to normal control [3] | HDL levels [3] | VLDL levels compared to controls [3] | triglyceride (TG) levels compared to controls [3] | ratio of nuclear to cytoplasmic staining of p65 (p65 subunit of NF-κB; TNF-α, at all the concentrations tested)
1 | CC(=O)Oc1cc2c(cc1[N+](=O)[O-])OCO2 [INV-75, 3,4-methylenedioxy-6-nitrophenyl acetate] | marked reduction | inhibits | reduction | marked inhibition | ≥ 10 | moderate decreases | moderate decreases | – | – | – | –
2 | O=C(CCCCC1CCSS1)Oc1ccc2c(c1)OCO2 (stereo not shown) [INV-7065, 3,4-Methylenedioxy phenyl lipoate] | – | – | – | – | – | lower | – | insignificant change | slight decrease | significantly decreased | –
3 | O=C(CCCCC1CCSS1)Oc1cc2c(cc1[N+](=O)[O-])OCO2 (stereo not shown) [INV-7465, 3,4-Methylenedioxy 6-nitro phenyl lipoate] | marked reduction | – | – | – | – | – | – | – | – | – | decrease
